Laboratory results taken from ChEMBL document CHEMBL1201862, “PubChem BioAssay data set” (2004).
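These data come from cells grown in 96-well plates and exposed to compound for 48 hours at five concentrations. GI50 is the concentration that inhibits growth by half.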 Calls of active or inactive are those of the source. Rule as the data show it: active = GI50 up to about 1.1 µM and inactive = higher.

How the values were obtained:
Test in all cases: NCI tumour cell line growth inhibition, 48 h
786-0 = test system: 786-0
A498 = test system: A498
A549 = test system: A549
ACHN = test system: ACHN
CAKI-1 = test system: CAKI-1
CCRF-CEM = test system: CCRF-CEM
COLO 205 = test system: COLO 205
DLD-1 = test system: DLD-1
DMS-114 = test system: DMS-114
DMS-273 = test system: DMS-273
EKVX = test system: EKVX
HCC 2998 = test system: HCC 2998
HCT-116 = test system: HCT-116
HCT-15 = test system: HCT-15
HL-60 = test system: HL-60
HOP-18 = test system: HOP-18
HOP-62 = test system: HOP-62
HOP-92 = test system: HOP-92
HT-29 = test system: HT-29
IGROV-1 = test system: IGROV-1
K562 = test system: K562
KM-20L2 = test system: KM-20L2
KM12 = test system: KM12
LOX IMVI = test system: LOX IMVI
LXFL 529 = test system: LXFL 529
M14 = test system: M14
M19-MEL = test system: M19-MEL
MOLT-4 = test system: MOLT-4
Malme-3M = test system: Malme-3M
NCI-H226 = test system: NCI-H226
NCI-H23 = test system: NCI-H23
NCI-H460 = test system: NCI-H460
NCI-H522 = test system: NCI-H522
OVCAR-3 = test system: OVCAR-3
OVCAR-4 = test system: OVCAR-4
OVCAR-5 = test system: OVCAR-5
OVCAR-8 = test system: OVCAR-8
RPMI-8226 = test system: RPMI-8226
RXF 393 = test system: RXF 393
RXF 631 = test system: RXF 631
SF-268 = test system: SF-268
SF-295 = test system: SF-295
SF-539 = test system: SF-539
SK-MEL-28 = test system: SK-MEL-28
SK-MEL-2 = test system: SK-MEL-2
SK-MEL-5 = test system: SK-MEL-5
SK-OV-3 = test system: SK-OV-3
SN12C = test system: SN12C
SNB-19 = test system: SNB-19
SNB-75 = test system: SNB-75
SNB-78 = test system: SNB-78
SR = test system: SR
SW-620 = test system: SW-620
TK-10 = test system: TK-10
U-251 = test system: U-251
UACC-257 = test system: UACC-257
UACC-62 = test system: UACC-62
UO-31 = test system: UO-31
XF498 = test system: XF498

Oc1ccccc1/C=C/c1csnn1
GI50 (786-0): > 31.6 µM (inactive)
GI50 (A498): > 100 µM (inactive)
GI50 (A549): > 100 µM (inactive)
GI50 (ACHN): > 100 µM (inactive)
GI50 (CAKI-1): > 100 µM (inactive)
GI50 (CCRF-CEM): > 100 µM (inactive)
GI50 (COLO 205): > 100 µM (inactive)
GI50 (DLD-1): > 100 µM (inactive)
GI50 (DMS-114): > 84.1 µM (inactive)
GI50 (DMS-273): > 100 µM (inactive)
GI50 (EKVX): > 100 µM (inactive)
GI50 (HCC 2998): > 100 µM (inactive)
GI50 (HCT-116): 98.4 µM (inactive)
GI50 (HCT-15): > 51.4 µM
GI50 (HL-60): 39.4 µM (inactive)
GI50 (HOP-18): > 100 µM (inactive)
GI50 (HOP-62): > 100 µM (inactive)
GI50 (HOP-92): > 100 µM (inactive)
GI50 (HT-29): > 100 µM (inactive)
GI50 (IGROV-1): > 100 µM (inactive)
GI50 (K562): > 100 µM (inactive)
GI50 (KM-20L2): > 100 µM (inactive)
GI50 (KM12): > 100 µM (inactive)
GI50 (LOX IMVI): > 52.1 µM (inactive)
GI50 (LXFL 529): > 100 µM (inactive)
GI50 (M14): > 100 µM (inactive)
GI50 (M19-MEL): > 100 µM (inactive)
GI50 (MOLT-4): > 100 µM (inactive)
GI50 (Malme-3M): > 100 µM (inactive)
GI50 (NCI-H226): > 100 µM (inactive)
GI50 (NCI-H23): > 100 µM (inactive)
GI50 (NCI-H460): > 69.7 µM (inactive)
GI50 (NCI-H522): > 100 µM (inactive)
GI50 (OVCAR-3): > 100 µM (inactive)
GI50 (OVCAR-4): > 100 µM (inactive)
GI50 (OVCAR-5): > 100 µM (inactive)
GI50 (OVCAR-8): > 100 µM (inactive)
GI50 (RPMI-8226): > 100 µM (inactive)
GI50 (RXF 393): > 100 µM (inactive)
GI50 (RXF 631): > 100 µM (inactive)
GI50 (SF-268): > 100 µM (inactive)
GI50 (SF-295): > 100 µM (inactive)
GI50 (SF-539): > 100 µM (inactive)
GI50 (SK-MEL-28): > 100 µM (inactive)
GI50 (SK-MEL-2): > 100 µM (inactive)
GI50 (SK-MEL-5): > 100 µM (inactive)
GI50 (SK-OV-3): > 100 µM (inactive)
GI50 (SN12C): > 100 µM (inactive)
GI50 (SNB-19): > 100 µM (inactive)
GI50 (SNB-75): > 100 µM (inactive)
GI50 (SNB-78): > 100 µM (inactive)
GI50 (SR): > 46.2 µM (inactive)
GI50 (SW-620): > 65.9 µM (inactive)
GI50 (TK-10): > 100 µM (inactive)
GI50 (U-251): > 100 µM (inactive)
GI50 (UACC-257): > 100 µM (inactive)
GI50 (UACC-62): > 100 µM (inactive)
GI50 (UO-31): > 100 µM (inactive)
GI50 (XF498): > 100 µM (inactive)

CCC(CC)n1cc(C(=O)NC(=O)NCCCCCOC(=O)CCCCCCCCCCC(=O)OCCCCCNC(=O)NC(=O)c2cn(C(CC)CC)c(=O)[nH]c2=O)c(=O)[nH]c1=O
GI50 (786-0): 45.8 µM (inactive)
GI50 (A498): > 100 µM (inactive)
GI50 (A549): > 100 µM (inactive)
GI50 (ACHN): > 100 µM (inactive)
GI50 (CAKI-1): > 100 µM (inactive)
GI50 (CCRF-CEM): > 100 µM (inactive)
GI50 (COLO 205): > 100 µM (inactive)
GI50 (DLD-1): > 100 µM (inactive)
GI50 (DMS-114): > 100 µM (inactive)
GI50 (DMS-273): > 100 µM (inactive)
GI50 (EKVX): > 100 µM (inactive)
GI50 (HCC 2998): > 100 µM (inactive)
GI50 (HCT-116): > 100 µM (inactive)
GI50 (HCT-15): > 100 µM
GI50 (HL-60): > 100 µM (inactive)
GI50 (HOP-18): > 100 µM (inactive)
GI50 (HOP-62): > 100 µM (inactive)
GI50 (HOP-92): > 100 µM (inactive)
GI50 (HT-29): > 100 µM (inactive)
GI50 (IGROV-1): > 100 µM (inactive)
GI50 (K562): > 100 µM (inactive)
GI50 (KM-20L2): > 100 µM (inactive)
GI50 (KM12): > 100 µM (inactive)
GI50 (LOX IMVI): > 100 µM (inactive)
GI50 (LXFL 529): 62.8 µM (inactive)
GI50 (M14): > 100 µM (inactive)
GI50 (M19-MEL): > 100 µM (inactive)
GI50 (MOLT-4): > 100 µM (inactive)
GI50 (Malme-3M): > 100 µM (inactive)
GI50 (NCI-H226): > 100 µM (inactive)
GI50 (NCI-H23): > 100 µM (inactive)
GI50 (NCI-H460): > 100 µM (inactive)
GI50 (NCI-H522): > 100 µM (inactive)
GI50 (OVCAR-3): > 100 µM (inactive)
GI50 (OVCAR-4): > 100 µM (inactive)
GI50 (OVCAR-5): > 100 µM (inactive)
GI50 (OVCAR-8): 64.3 µM (inactive)
GI50 (RPMI-8226): > 100 µM (inactive)
GI50 (RXF 393): 29.1 µM (inactive)
GI50 (RXF 631): > 100 µM (inactive)
GI50 (SF-268): > 100 µM (inactive)
GI50 (SF-295): > 100 µM (inactive)
GI50 (SF-539): 47.2 µM (inactive)
GI50 (SK-MEL-28): > 100 µM (inactive)
GI50 (SK-MEL-5): > 100 µM (inactive)
GI50 (SK-OV-3): > 100 µM (inactive)
GI50 (SN12C): > 100 µM (inactive)
GI50 (SNB-19): 27.7 µM (inactive)
GI50 (SNB-75): 22.8 µM (inactive)
GI50 (SNB-78): > 100 µM (inactive)
GI50 (SR): > 100 µM (inactive)
GI50 (SW-620): > 100 µM (inactive)
GI50 (TK-10): > 100 µM (inactive)
GI50 (U-251): 88.3 µM (inactive)
GI50 (UACC-257): > 100 µM (inactive)
GI50 (UACC-62): > 100 µM (inactive)
GI50 (UO-31): > 100 µM (inactive)
GI50 (XF498): > 100 µM (inactive)
